PubChem BioAssay (NCI)
Where “and” joins values, the source holds several entries; their conditions need not be identical. Equal entries are not always repeated.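 In this assay, cells in 96-well plates receive the compound at five concentrations for 48 hours. Endpoints are linearly interpolated between the surrounding concentrations. The concentration for 50% growth inhibition is given as GI50. Definition used: TGI = concentration required for complete inhibition of growth.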

What was measured:
Assay in all cases: NCI-60 cell line screen, 48 h
SK-OV-3 ovarian = system: SK-OV-3 ovarian
HOP-92 NSCLC = system: HOP-92 NSCLC
NCI-H522 lung = system: NCI-H522 lung
SF-539 CNS = system: SF-539 CNS
BT-549 breast = system: BT-549 breast
PC-3 prostate = system: PC-3 prostate
U251 CNS = system: U251 CNS
SF-295 CNS = system: SF-295 CNS
HCT-15 colon = system: HCT-15 colon
SK-MEL-28 melanoma = system: SK-MEL-28 melanoma
RPMI-8226 leukemia = system: RPMI-8226 leukemia
SNB-75 CNS = system: SNB-75 CNS
OVCAR-3 ovarian = system: OVCAR-3 ovarian
MCF7 breast = system: MCF7 breast
786-0 renal = system: 786-0 renal
CAKI-1 renal = system: CAKI-1 renal
T-47D breast = system: T-47D breast
SN12C renal = system: SN12C renal
DU-145 prostate = system: DU-145 prostate
HOP-62 NSCLC = system: HOP-62 NSCLC
HCT-116 colon = system: HCT-116 colon
M19-MEL melanoma = system: M19-MEL melanoma
SK-MEL-5 melanoma = system: SK-MEL-5 melanoma
COLO 205 colon = system: COLO 205 colon
ACHN renal = system: ACHN renal
IGROV1 ovarian = system: IGROV1 ovarian
NCI-H23 lung = system: NCI-H23 lung
EKVX NSCLC = system: EKVX NSCLC
UACC-62 melanoma = system: UACC-62 melanoma
MDA-N = system: MDA-N
MDA-MB-435 = system: MDA-MB-435
HS 578T breast = system: HS 578T breast
TK-10 renal = system: TK-10 renal
NCI/ADR-RES ovarian = system: NCI/ADR-RES ovarian
OVCAR-8 ovarian = system: OVCAR-8 ovarian
K-562 leukemia = system: K-562 leukemia
SNB-19 CNS = system: SNB-19 CNS
OVCAR-4 ovarian = system: OVCAR-4 ovarian
SW-620 colon = system: SW-620 colon
UO-31 renal = system: UO-31 renal
MALME-3M melanoma = system: MALME-3M melanoma
NCI-H226 lung = system: NCI-H226 lung
SK-MEL-2 melanoma = system: SK-MEL-2 melanoma
OVCAR-5 ovarian = system: OVCAR-5 ovarian
KM12 colon = system: KM12 colon
SR leukemia = system: SR leukemia
RXF 393 renal = system: RXF 393 renal
SF-268 CNS = system: SF-268 CNS
A549 NSCLC = system: A549 NSCLC
LOX IMVI melanoma = system: LOX IMVI melanoma
M14 melanoma = system: M14 melanoma
MDA-MB-231 breast = system: MDA-MB-231 breast
UACC-257 melanoma = system: UACC-257 melanoma
NCI-H460 lung = system: NCI-H460 lung

S=C(S)N1CCCCC1
TGI (SK-OV-3 ovarian): 353 µM | GI50 (HOP-92 NSCLC): 24.9 µM and 116 µM | TGI (HOP-92 NSCLC): > 406 µM | GI50 (NCI-H522 lung): 28 µM | GI50 (SF-539 CNS): 32.3 µM and 22.7 µM | TGI (SF-539 CNS): 83.3 µM and > 406 µM | TGI (BT-549 breast): > 406 µM | TGI (PC-3 prostate): 70.4 µM and > 406 µM | GI50 (U251 CNS): 60.3 µM | TGI (U251 CNS): > 406 µM | GI50 (SF-295 CNS): 34 µM and 39.3 µM | TGI (SF-295 CNS): > 406 µM | GI50 (HCT-15 colon): 25.3 µM and 22.8 µM | TGI (HCT-15 colon): 177 µM | GI50 (SK-MEL-28 melanoma): 89 µM | TGI (SK-MEL-28 melanoma): > 406 µM | TGI (RPMI-8226 leukemia): 68.3 µM and > 406 µM | GI50 (SNB-75 CNS): 28 µM | TGI (SNB-75 CNS): > 406 µM | TGI (OVCAR-3 ovarian): > 406 µM | TGI (MCF7 breast): 88.3 µM | GI50 (786-0 renal): 12.9 µM and 64.5 µM | TGI (786-0 renal): > 406 µM | GI50 (CAKI-1 renal): 19.9 µM | TGI (CAKI-1 renal): 99.1 µM and > 406 µM | GI50 (T-47D breast): 45.7 µM | TGI (T-47D breast): 299 µM | GI50 (SN12C renal): 89.7 µM and 49.8 µM | TGI (SN12C renal): > 406 µM | TGI (DU-145 prostate): > 406 µM | GI50 (HOP-62 NSCLC): 17 µM | TGI (HOP-62 NSCLC): > 406 µM | GI50 (HCT-116 colon): 12 µM | TGI (HCT-116 colon): 26.2 µM and 45.3 µM | TGI (M19-MEL melanoma): > 46.9 µM | TGI (SK-MEL-5 melanoma): 81.5 µM | TGI (COLO 205 colon): 82.7 µM | GI50 (ACHN renal): 19.6 µM and 54.3 µM | TGI (ACHN renal): > 406 µM | GI50 (IGROV1 ovarian): 55.2 µM and 10.5 µM | TGI (IGROV1 ovarian): 100 µM | GI50 (NCI-H23 lung): 36.6 µM | TGI (NCI-H23 lung): > 406 µM | GI50 (EKVX NSCLC): 46.5 µM | TGI (EKVX NSCLC): > 406 µM | GI50 (UACC-62 melanoma): 19.8 µM | TGI (UACC-62 melanoma): > 46.3 µM and 82.5 µM | GI50 (MDA-N): 70.4 µM | TGI (MDA-N): 46.6 µM | GI50 (MDA-MB-435): 20.4 µM | TGI (MDA-MB-435): 67.9 µM and > 406 µM | TGI (HS 578T breast): > 406 µM | TGI (TK-10 renal): > 406 µM | GI50 (NCI/ADR-RES ovarian): 20.8 µM | TGI (NCI/ADR-RES ovarian): 93.5 µM and 173 µM | GI50 (OVCAR-8 ovarian): 22.9 µM and 15.9 µM | TGI (OVCAR-8 ovarian): > 406 µM | GI50 (K-562 leukemia): > 406 µM | TGI (SNB-19 CNS): > 406 µM | GI50 (OVCAR-4 ovarian): 51 µM | TGI (OVCAR-4 ovarian): 295 µM | GI50 (SW-620 colon): 21.6 µM and 18.4 µM | TGI (SW-620 colon): 66.1 µM and 63.6 µM | GI50 (UO-31 renal): 20.9 µM | TGI (UO-31 renal): 55.5 µM and 398 µM | GI50 (MALME-3M melanoma): 40.6 µM and 129 µM | TGI (MALME-3M melanoma): 64.8 µM and > 406 µM | GI50 (NCI-H226 lung): 42.4 µM | TGI (NCI-H226 lung): > 406 µM | GI50 (SK-MEL-2 melanoma): 28.2 µM and 54.1 µM | TGI (SK-MEL-2 melanoma): 84.6 µM and 179 µM | TGI (OVCAR-5 ovarian): > 406 µM | GI50 (KM12 colon): 50.2 µM and 51.8 µM | TGI (KM12 colon): 137 µM | GI50 (SR leukemia): 17.5 µM and 80.7 µM | TGI (SR leukemia): 67 µM and > 406 µM | TGI (RXF 393 renal): > 406 µM | GI50 (SF-268 CNS): 26 µM and 106 µM | TGI (SF-268 CNS): > 406 µM | GI50 (A549 NSCLC): 71.6 µM | TGI (A549 NSCLC): > 406 µM | GI50 (LOX IMVI melanoma): 11.2 µM and 8.18 µM | TGI (LOX IMVI melanoma): 26.6 µM and 16.3 µM | GI50 (M14 melanoma): 10.9 µM | TGI (M14 melanoma): 85.7 µM and 29.7 µM | TGI (MDA-MB-231 breast): > 406 µM | GI50 (UACC-257 melanoma): 30.7 µM and 38 µM | TGI (UACC-257 melanoma): > 406 µM | TGI (NCI-H460 lung): 85 µM
